Data on 2 compounds can be found in US11014902B2, “MYC G-quadruplex stabilizing small molecules and their use” (The United States of America, as represented by the …, priority 2015, dated 2021).

The target of data set [1] is c-MYC G4 DNA (biotin-labeled Pu22 G-quadruplex). Kind of data set: Surface plasmon resonance (SPR). It counts as binding. The settings on record: SPR, 25° C.; read-out: equilibrium dissociation constant (Kd). How it is done:
In order to quantitatively assess the binding affinity of Compound 1 with the c-MYC G4, surface plasmon resonance (SPR) experiments (De Crescenzo, et al., Cell Mol Bioeng 2008, 1, 204) were performed using a biotinylated c-MYC G4 oligonucleotide. The oligonucleotide was immobilized to a streptavidin-coated chip, and binding was measured as a function of concentration. (FIG. 2). […] Furthermore, Compound 1 interacts with quadruplex DNA through a reversible binding interaction, and rapid, complete dissociation can be observed in the sensogram (FIG. 2C).
SPR experiments were performed with a Biacore T200 (GE Healthcare). […] The c-MYC DNA was then captured (FC2: 1245 Ru) on a Series S Sensor CM5 Chip (GE Healthcare) with amine-coupled Neutravidin (FC1: 4466 Ru, FC2: 5458 Ru). Single Cycle Kinetics (SCK) experiments were carried out with five injections of increasing concentration of analyte solution, which was prepared by a three-fold serial dilution of compound with buffer (10 mM Tris pH 7.5, 100 mM KCl, 3 mM EDTA) containing 3% DMSO. Binding analysis was conducted at a flow rate of 30 μL/min at 25° C. In each run, the association phase and the subsequent dissociation phase were monitored for 1 min and 10 min, respectively. Prior to each compound injection, three buffer injections were made. […]
For orientation: SPR reads the build-up and loss of mass on a sensor chip optically.

Data set [2] can be described thus: Stability study in culture media (LC/MS). Type of data set: physicochemical. As to conditions: RPMI-1640, LC/MS, up to 72 h. From the text:
Having established the reversible binding of Compound 1 to quadruplex DNA and selective quadruplex-dependent silencing of c-Myc, one consideration that remained was the presence of a benzylaminophenol functional group in Compound 1. It has previously been reported that compounds containing this functional group can have the propensity to eject amines, form an o-quinone methide, and alkylate proteins (Weinert, et al., J Am Chem Soc 2006, 128, 11940; Herzig, et al., J Org Chem 2006, 71, 4130; McLean, et al., Bioorg Med Chem Lett 2009, 19, 6717). To assess whether Compound 1 was undergoing this reactivity, a small series of analogs was prepared. In FIG. 6C, compounds lacking the phenol or amino group were prepared and evaluated. […] Additionally, the stability of Compound 1 was evaluated (see FIG. 7). […] Additionally, the putative hydrolysis products arising from quinone methide formation were not observed at any time by LC/MS.
Compound 1 (10 μL of 1 mM DMSO solution) was added to 490 μL RPMI-1640 culture media. After 1 min, 25 h, 48 h, and 72 h, 100 μL of this solution was diluted into 100 μL acetonitrile. The mixture was centrifuged at 5500 rpm for 1 min and the supernatant was removed from the pellet. […]
Compound 1 (10 μL of 1 mM DMSO solution) was added to 490 μL RPMI-1640 culture media. […] The mass corresponding to Compound 1 (M+H^+=393) was extracted and the chromatogram evaluated. […]

For data set [3], the system named is mutant sequence incapable of G4 formation. It counts as biochemical. As to conditions: concentrations up to 100 μM.
The test system of a further data set is RB1, BCL2 G4s. Nature of the data set: Biophysical measurements of compound affinity, RB1 and BCL2 G4s. Type of data set: binding.
Data set [4] relates to CA46 Burkitt's Lymphoma line. Nature of the data set: CA46 cell viability. Type of data set: cell-based, human. How it is done: Since two thirds of multiple myeloma cases involve deregulated c-MYC expression (Kuehl and Bergsagel, Blood 2012, 120, 2351; Shou, et al., Proc Natl Acad Sci USA 2000, 97, 228), we elected to evaluate the cell viability effects of Compound 1 in a multiple myeloma model. […] This suppression was maintained over 72 hours, which is notable given the characteristic rapid replenishment of the protein—a phenomenon that complicates targeting c-Myc at the protein level (FIG. 4C). This effect was maintained across a genetically diverse set of 4 multiple myeloma lines. We observed decreases in c-MYC translation in all lines tested, and this effect also correlated with decreases in viability (FIG. 4D).
Human multiple myeloma and Burkitt's Lymphoma cell lines L363, CA46, MM-1R, KMS-11, and MM-1S were cultured and authenticated as previously described (Simmons, et al., Molecular oncology 2014, 8, 261). All plasma derived cell lines were cultured in RPMI-1640 (2 mM L-glutamine, 10% fetal bovine serum (FBS), 100 U/ml penicillin, 100 μg/ml streptomycin: Gibco) and incubated at 37° C. with 5% CO2. […] MTS reagent was then directly added, incubated at 37° C. for 90 min, and absorbance of MTS formazan was read at 500 nm on an Omega 640 spectrophotometer. Percentage cell viability was normalized to the absorbance of untreated (DMSO) wells. […]

Data set [5] is described as follows: Pharmacokinetic evaluation, blood plasma levels by mass spectrometry. As to conditions: single injection 19 mg/kg, female nude mice; for Tmax / half-life: mouse. It counts as in vivo. How it is done:
The blood plasma levels of Compound 23 after a single IP or IV injection (19 mg/kg) in female nude mice were determined by mass spectrometry (see FIG. 12 and the following table).

For orientation: Kd means the free concentration of one partner at which half of the binding sites on the other are occupied at equilibrium, for simple one-to-one binding. Turning to `Cc1ccc(NC(=O)c2c(C)oc3ccc(O)c(CN4CCCCCC4)c23)cc1` [Compound 1], the Kd in data set [1] came out at 4.5 ± 1.4 µM. The “stability in culture media” value in data set [2] is reported as “persisted in culture media over a period of 72 h”. For the same compound, the “effect on PCR amplification” value in data set [3] was “no effect”. Further, the “G4 binding relative to MYC” value with RB1, BCL2 G4s was “weaker binding”. For the same compound, the cell viability result in data set [4] is reported as “negligible changes”.
Usually Tmax stands for the time from dosing to the highest level. By half-life is commonly meant the time needed for the level to fall by half in the phase considered. As for `Cc1oc2ccc(O)c(CN3CCCCCC3)c2c1C(=O)Nc1ccc(C(F)(F)F)cc1` [Compound 23], in data set [5] (IP), the Kel turned out to be 0.277 h⁻¹, the Tmax was found to be 1 h and the half-life is 6.5 h. Moreover, in data set [5] (IV), the Kel is 0.277 h⁻¹, the Tmax is 0.38 h and the half-life was 2.25 h.
